Patent US20250099407A1, “2-AMINO BENZOPHENONE DERIVATIVES FOR TARGETED FERROPTOSIS INDUCTION IN CANCER THERAPY” (INDIAN INSTITUTE OF TECHNOLOGY KANPUR, priority 2023, published 2025)

Tested on: Huh-7 cells
Assay: Combination cell viability experiments with thiols, ferroptosis modulators and cell death inhibitors in Huh-7 cells
Format: cell-based
Conditions: for cell death mechanism from combination experiments: combination with GSH, NAC, BSO, Fer-1, deferoxamine, RSL3, FIN56, Erastin, QVD-OPh, necrostatin-1, Huh-7 and 4T1; for reduction in potency by N-acetylcysteine (NAC) and GSH: 500 μM NAC or glutathione in combination; for effect of erastin addition on antiproliferative activity: Erastin 0.5 μM, relatively non-toxic concentration; for effect of apoptosis (QVD-OPh) and necrosis (Necrostatin-1) inhibitors on antiproliferative activity: QVD-OPh and Necrostatin-1 10 μM
Experimental: FIG. 14 depicts a combination experiment indicates the involvement of thiol modulation by IITK3001/IITK3002 on the viability of Huh-7 and 4T1 cells, in accordance with an embodiment of the present invention. The viability of screened cancer cells was recorded using a luminescence-based CellTiter-Glo® assay for the ATP quantification. The screening concentration of (a) IITK3001 and (b) IITK3002 ranged from 10 uM to 4.5 nM with an 8-point-3-fold dilution series in DMEM medium (>0.1% DMSO as control). For combination experiments, 500 μM of NAC or glutathione and 25 μM of BSO were used. Each experiment was conducted in more than two biological replicates with three technical replicates. The error bar is a representation of standard deviation among the technical replicates.
(§1) FIG. 16 depicts ferroptosis induction as a cell death mechanism is established for IITK3001 using combination experiments with ferroptosis inducers and inhibitors, in accordance with an embodiment of the present invention. The screening concentration of (a) IITK3001 and (b) IITK3002 ranged from 10 μM to 4.5 nM with an 8-point-3-fold dilution series in DMEM medium (>0.1% DMSO as control). For combination experiments, Ferrostain-1 (10 μM),Deferoxamine (3 μM), RSL3 (10 nM), FIN56 (30 nM), glutamine (0.5 mM), glutamic acid (0.5 mM), Erastin (0.5 μM) were used. Each experiment was conducted in more than two biological replicates with three technical replicates. The error bar is a representation of standard deviation among the technical replicates.
as §1, with “18” for “16”, “IITK3002” for “IITK3001”, “of” for “of (a) IITK3001 and (b)”, “μM), Deferoxamine” for “μM),Deferoxamine”
FIG. 20 depicts combining apoptosis and necroptosis inhibitors ruled out the possibility of respective cell death mechanisms upon treatment with IITK3001 or IITK3002 in Huh-7 and 4T1 cells, in accordance with an embodiment of the present invention. The screening concentration of IITK3001/IITK3002 ranged from 10 μM to 4.5 nM with an 8-point-3-fold dilution series in DMEM medium (>0.1% DMSO as control). For combination experiments, QVD-OPh and Necrsotatin-1 (10 μM) were used. Each experiment was conducted in more than two biological replicates with three technical replicates. The error bar is a representation of standard deviation among the technical replicates.
FIG. 22 depicts ferroptosis induction was established for IITK3003 using combination experiments in Huh-7 cells, in accordance with an embodiment of the present invention. The screening concentration of IITK3002 ranged from 10 uM to 4.5 nM with an 8-point-3-fold dilution series in DMEM medium (>0.1% DMSO as control). For combination experiments, Ferrostain-1 ([…]), Deferoxamine (3 μM), RSL3 (10 nM), FIN56 (30 nM), glutamine (0.5 mM), glutamic acid (0.5 mM), Erastin (0.5 μM) were used. Each experiment was conducted in more than two biological replicates with three technical replicates. The error bar is a representation of standard deviation among the technical replicates.
FIG. 24 depicts ferroptosis induction was established for IITK3004 using combination experiments in Huh-7 cells, in accordance with an embodiment of the present invention. The screening concentration of the molecules (a) IITK3001 and (b) IITK3002 ranged from 10 μM to 4.5 nM with a 8-point-3-fold dilution series. […]

Compound | cell death mechanism from combination experiments | reduction in potency by N-acetylcysteine (NAC) and GSH [fold] | effect of erastin addition on antiproliferative activity | effect of apoptosis (QVD-OPh) and necrosis (Necrostatin-1) inhibitors on antiproliferative activity
C#CCN(C(=O)CCl)c1ccccc1C(=O)c1ccccc1 [IITK3003, N-(2-benzoylphenyl)-2-chloro-N-(prop-2-yn-1-yl)acetamide] | exceptionally selective ferroptosis inducers |  |  | 
CN(C(=O)CCl)c1ccccc1C(=O)c1ccccc1 [IITK3001, N-(2-benzoylphenyl)-2-chloro-N-methylacetamide] | ferroptosis | > 1000 | no effect | no apparent deviation
CN(C(=O)CBr)c1ccccc1C(=O)c1ccccc1 [IITK3002, N-(2-benzoylphenyl)-2-bromo-N-methylacetamide] | ferroptosis | > 500 | no effect | no apparent deviation
